The text below walks through data of patent US11453703B2, “Heterotandem bicyclic peptide complexes” (BicycleTX Limited, priority 2018, dated 2022).

Data set [1] addresses T1, CD137 (Homo sapiens, UniProt Q07011). The experiment in a line: CD137 Biacore (SPR) binding assay. On the set-up: purchased R&D systems. The note with it: biotinylated human CD137, 25° C. The procedure, abridged:
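Biotinylated human CD137 captured (270-1500 RU) on streptavidin-coupled dextran chip; peptides up to 500 nM in PBS/0.05% Tween 20, 0.5% DMSO, at 25°C, 60 s association, 900 s dissociation. Double-referenced data fitted to 1:1 binding model, with mass transport where appropriate.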

The target in a further data set is T2, human Nectin-4 protein (Homo sapiens, UniProt Q96NY8).
T2 construct: Human Nectin-4 (residues Gly32-Ser349); host or cells: Sf21 insect cells (baculovirus, pFastbac-1)
T2 sequence (Q96NY8 32-349): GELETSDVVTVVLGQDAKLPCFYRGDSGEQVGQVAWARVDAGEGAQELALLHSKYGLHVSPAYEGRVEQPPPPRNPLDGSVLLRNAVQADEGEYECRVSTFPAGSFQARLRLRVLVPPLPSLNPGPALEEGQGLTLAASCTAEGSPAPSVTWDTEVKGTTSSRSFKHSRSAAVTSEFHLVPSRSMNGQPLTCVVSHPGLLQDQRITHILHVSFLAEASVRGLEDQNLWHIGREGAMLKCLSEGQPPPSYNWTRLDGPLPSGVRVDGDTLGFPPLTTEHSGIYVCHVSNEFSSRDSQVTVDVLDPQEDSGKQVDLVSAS
Nature of the data set: Nectin-4 Biacore (SPR) binding assay. The note with it: biotinylated human Nectin-4, 25° C. The procedure:
Biacore experiments were performed to determine ka (M^−1s^−1), kd (s^−1), KD (nM) values of heterotandem peptides binding to human Nectin-4 protein (obtained from Charles River). Human Nectin-4 (residues Gly32-Ser349; NCBI RefSeq: NP_112178.2) with a gp67 signal sequence and C-terminal FLAG tag was cloned into pFastbac-1 and baculovirus made using standard Bac-to-Bac™ protocols (Life Technologies). Sf21 cells at 1×10^6 ml^−1 in Excell-420 medium (Sigma) at 27° C. were infected at an MOI of 2 with a P1 virus stock and the supernatant harvested at 72 hours. The supernatant was batch bound for 1 hour at 4° C. with Anti-FLAG M2 affinity agarose resin (Sigma) washed in PBS and the resin subsequently transferred to a column and washed extensively with PBS. The protein was eluted with 100 μg/ml FLAG peptide. The eluted protein was concentrated to 2 ml and loaded onto an S-200 Superdex column (GE Healthcare) in PBS at 1 ml/min. 2 ml fractions were collected and the fractions containing Nectin-4 protein were concentrated to 16 mg/ml.
The protein was extensively desalted to remove uncoupled biotin using spin columns into PBS.
For analysis of peptide binding, a Biacore 3000 instrument was used with a CM5 chip (GE Healthcare). Streptavidin was immobilized on the chip using standard amine-coupling chemistry at 25° C. with HBS-N (10 mM HEPES, 0.15 M NaCl, pH 7.4) as the running buffer. Briefly, the carboxymethyl dextran surface was activated with a 7 minute injection of a 1:1 ratio of 0.4 M 1-ethyl-3-(3-dimethylaminopropyl) carbodiimide hydrochloride (EDC)/0.1 M N-hydroxy succinimide (NHS) at a flow rate of 10 μl/min. For capture of streptavidin, the protein was diluted to 0.2 mg/ml in 10 mM sodium acetate (pH 4.5) and captured by injecting 120 μl of streptavidin onto the activated chip surface. Residual activated groups were blocked with a 7 minute injection of 1 M ethanolamine (pH 8.5) and biotinylated Nectin-4 captured to a level of 1,200-1,800 RU. Buffer was changed to PBS/0.05% Tween 20 and a dilution series of the peptides was prepared in this buffer with a final DMSO concentration of 0.5%. The top peptide concentration was 100 nM with 6 further 2-fold dilutions. The SPR analysis was run at 25° C. at a flow rate of 50 μl/min with 60 seconds association and dissociation between 400 and 1,200 seconds depending upon the individual peptide. Data were corrected for DMSO excluded volume effects. All data were double-referenced for blank injections and reference surface using standard processing procedures and data processing and kinetic fitting were performed using Scrubber software, version 2.0c (BioLogic Software). Data were fitted using simple 1:1 binding model allowing for mass transport effects where appropriate.

For data set [2], the target named is T1, CD137. Nature of the data set: CD137 reporter assay, co-culture with Nectin-4 tumour cells.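 As to all read-outs here: jurkat reporter cells co-cultured with tumour cells and test article for 6 h, luminescence signal relative to Jurkat plus tumour cells lacking test article.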 The data set is classed as cell-based. Also on record: host or cells: Jurkat reporter cells. The note with it: for Fold Induction over Background: tumour target Nectin4, co-culture with H1376, 6 h.
Procedure: Culture medium referred to as R1 media is prepared by adding 1% FBS to RPMI-1640 (component of Promega kit CS196005). Serial dilutions of test articles in R1 are prepared in a sterile 96 well-plate. Use 25 μl per well of test articles or R1 (as a background control) to designated wells in white cell culture plate. Tumour cells* are harvested and resuspended at a concentration of 400,000 cells/mL in R1 media. Twenty five (25) μL/well tumour cells are used in white cell culture plate. Jurkat cells (Promega kit CS196005, 0.5 mL) are thawed in the water bath and then added to 5 ml pre-warmed R1 medium. Twenty five (25) μL/well Jurkat cells are used in white cell culture plate. Incubate the cells and test articles for 6h at 37° C., 5% CO2. At the end of 6 h, add 75 μl/well Bio-Glo™ (Promega) and incubate for 10 min before reading luminescence in a plate reader (Clariostar, BMG). The fold change relative to cells (Jurkat cells+Cell line used in co-culture) is calculated and plotted in GraphPad Prism as log(agonist) vs response to determine EC50 (nM) and Fold Induction over background (Max)
A short description of data set [3]: Pharmacokinetics of CD137 bispecifics in SD rats. The data set is classed as in vivo. The note with it: male, Sprague-Dawley (SD), SD Rat, 2 mg/kg IV, plasma. As to the method: Male SD Rats were dosed with 2 mg/kg of each Bicycle multimer formulated in 25 mM Histidine HCl, 10% sucrose pH 7. Serial bleeding (about 80 μL blood/time point) was performed via submadibular or saphenous vein at each time point. All blood samples were immediately transferred into prechilled microcentrifuge tubes containing 2 μL K2-EDTA (0.5M) as anti-coagulant and placed on wet ice. Blood samples were immediately processed for plasma by centrifugation at approximately 4° C., 3000 g. The precipitant including internal standard was immediately added into the plasma, mixed well and centrifuged at 12,000 rpm, 4° C. for 10 minutes. The supernatant was transferred into pre-labeled polypropylene microcentrifuge tubes, and then quick-frozen over dry ice. The samples were stored at […] or below as needed until analysis. 7.5 μL of the supernatant samples were directly injected for LC-MS/MS analysis using an Orbitrap Q Exactive in positive ion mode to determine the concentrations of Bicycle multimer. Plasma concentration versus time data were analyzed by non-compartmental approaches using the Phoenix WinNonlin 6.3 software program. C0, CI, Vdss, T½, AUC(0-last), AUC(0-inf), MRT(0-last), MRT(0-inf) and graphs of plasma concentration versus time profile were reported.

Data set [4] concerns human PBMC co-cultured with 4T1-D02 (Nectin4+). Nature of the data set: Human PBMC-4T1 co-culture (cytokine release) assay. It counts as cell-based. Conditions: anti-CD3 stimulated PBMC, 48 hours. As to the method: Mouse mammary gland tumor cell line 4T1-1 (4T1-Parental) and murine Nectin-4 overexpressing 4T1 (4T1-D02) were cultured in RPMI1640 supplemented with 10% heat-inactivated Fetal Bovine Serum, 100 I.U/ml Penicillin and 100 I.U/Streptomycin, 20 mM HEPES, 1× Non-Essential Amino Acids, and 2 mM L-Glutamine (RPMI working medium). Frozen PBMCs from healthy human donors were thawed and washed one time in room temperature PBS, and then resuspended in RPMI working medium. For tumor cell and PBMC co-culture, 10000 PBMCs and 2000 tumor cells (5:1) were mixed and plated in each well of a 384 well plate. For stimulating human PBMCs, 125 ng/ml of soluble anti-CD3 mAb (clone OKT3) was added to the culture on day 0. Test, control compounds or vehicle controls were added to respective wells and brought the final volume per well to 100u1. Plates were incubated in a 37° C. cell culture incubator with 5% CO2 for up to three days. Supernatants were collected 48 hours after stimulation, and human IL-2 and IFFγ were detected using HTRF assays. Raw data were analyzed using Excel or Prism software to generate standard curves to interpolate protein concentrations. Data represents one study with three different donor PBMC tested in experimental duplicates.

T1 sequence (Q07011 24-255): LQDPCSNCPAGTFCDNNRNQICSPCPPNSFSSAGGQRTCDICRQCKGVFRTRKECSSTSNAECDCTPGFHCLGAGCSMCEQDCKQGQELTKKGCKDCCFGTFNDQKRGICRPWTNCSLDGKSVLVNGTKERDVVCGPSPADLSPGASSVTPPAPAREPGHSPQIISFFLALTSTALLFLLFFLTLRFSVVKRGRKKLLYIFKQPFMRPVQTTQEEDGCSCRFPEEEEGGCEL

In the case of `CCCC[C@@H]1NC(=O)[C@H](Cc2ccc(O)cc2)NC(=O)[C@@H]2CCCN2C(=O)[C@H](CC(=O)O)NC(=O)[C@H](C)NC(=O)[C@H](Cc2ccccc2)NC(=O)[C@@H]2CSCCC(=O)N3CN(CN(C3)C(=O)CCSC[C@@H](C(=O)N[C@@H](CNC(=O)CCc3cn(CCCNC(=O)CN(C)C(=O)CN(C)C(=O)CN(C)C(=O)CN(C)C(=O)CN(C)C(=O)CN(C)C(=O)CN(C)C(=O)CN(C)C(=O)CN(C)C(=O)CN(C)C(=O)COCCOCCOCCOCCOCCOCCOCCOCCOCCOCCNC(=O)N[C@H]4CSCCC(=O)N5CN6CN(C5)C(=O)CCSC[C@H](NC(=O)[C@@H](CC(=O)O)NC(=O)[C@H](Cc5cccc7ccccc57)NC(=O)[C@@H]5CCCN5C4=O)C(=O)N[C@@H](CCSC)C(=O)N[C@@H](CCCCNC(=N)N)C(=O)N[C@@H](CC(=O)O)C(=O)N[C@@H](Cc4c[nH]c5ccccc45)C(=O)N[C@@H](CO)C(=O)N[C@@H]([C@@H](C)O)C(=O)N4CCC[C@H]4C(=O)N4C[C@H](O)C[C@H]4C(=O)N[C@@H](Cc4c[nH]c5ccccc45)C(=O)N[C@H](C(N)=O)CSCCC6=O)nn3)C(N)=O)NC1=O)C(=O)CCSC[C@H](NC(=O)[C@H](C)NC(C)=O)C(=O)N[C@@H]([C@@H](C)CC)C(=O)N[C@@H](CCC(=O)O)C(=O)N[C@@H](CCC(=O)O)C(=O)NCC(=O)N[C@@H](CCC(N)=O)C(=O)N[C@@H](Cc1ccc(O)cc1)C(=O)N2` [BCY9408], the Kd on CD137 [1] came to 105 nM; at human Nectin-4 protein, 1.57 nM. A half-maximal effect at CD137 [2] (EC50) was put at 1.1 nM. Besides, the “Fold Induction over Background” value on CD137 [2] was determined as 20 fold.
`CCCC[C@@H]1NC(=O)[C@H](Cc2ccc(O)cc2)NC(=O)[C@@H]2CCCN2C(=O)[C@H](CC(=O)O)NC(=O)[C@H](C)NC(=O)[C@H](Cc2ccccc2)NC(=O)[C@@H]2CSCCC(=O)N3CN(CN(C3)C(=O)CCSC[C@@H](C(=O)N[C@@H](CNC(=O)CCc3cn(CCCNC(=O)CN(C)C(=O)CN(C)C(=O)CN(C)C(=O)CN(C)C(=O)CN(C)C(=O)CN(C)C(=O)CN(C)C(=O)CN(C)C(=O)CN(C)C(=O)CN(C)C(=O)CN(C)C(=O)CN(C)C(=O)CN(C)C(=O)CN(C)C(=O)CN(C)C(=O)COCCOCCOCCOCCOCCNC(=O)N[C@H]4CSCCC(=O)N5CN6CN(C5)C(=O)CCSC[C@H](NC(=O)[C@@H](CC(=O)O)NC(=O)[C@H](Cc5cccc7ccccc57)NC(=O)[C@@H]5CCCN5C4=O)C(=O)N[C@@H](CCSC)C(=O)N[C@@H](CCCCNC(=N)N)C(=O)N[C@@H](CC(=O)O)C(=O)N[C@@H](Cc4c[nH]c5ccccc45)C(=O)N[C@@H](CO)C(=O)N[C@@H]([C@@H](C)O)C(=O)N4CCC[C@H]4C(=O)N4C[C@H](O)C[C@H]4C(=O)N[C@@H](Cc4c[nH]c5ccccc45)C(=O)N[C@H](C(N)=O)CSCCC6=O)nn3)C(N)=O)NC1=O)C(=O)CCSC[C@H](NC(=O)[C@H](C)NC(C)=O)C(=O)N[C@@H]([C@@H](C)CC)C(=O)N[C@@H](CCC(=O)O)C(=O)N[C@@H](CCC(=O)O)C(=O)NCC(=O)N[C@@H](CCC(N)=O)C(=O)N[C@@H](Cc1ccc(O)cc1)C(=O)N2` [BCY9409] had a Kd at CD137 [1] of 97.7 nM. The same compound had a Kd on human Nectin-4 protein of 1.66 nM. On CD137 [2], the response was half-maximal at 1.2 nM (EC50) and the “Fold Induction over Background” value was 24 fold.
In the case of `CCCC[C@@H]1NC(=O)[C@H](Cc2ccc(O)cc2)NC(=O)[C@@H]2CCCN2C(=O)[C@H](CC(=O)O)NC(=O)[C@H](C)NC(=O)[C@H](Cc2ccccc2)NC(=O)[C@@H]2CSCCC(=O)N3CN(CN(C3)C(=O)CCSC[C@@H](C(=O)N[C@@H](CNC(=O)CCOCCOCCOCCOCCOCCOCCOCCOCCOCCOCCOCCOCCn3cc(CCC(=O)NCCC(=O)N(C)CC(=O)N(C)CC(=O)N(C)CC(=O)N(C)CC(=O)N(C)CC(=O)N(C)CC(=O)N(C)CC(=O)N(C)CC(=O)N(C)CC(=O)N(C)CC(=O)N[C@H]4CSCCC(=O)N5CN6CN(C5)C(=O)CCSC[C@H](NC(=O)[C@@H](CC(=O)O)NC(=O)[C@H](Cc5cccc7ccccc57)NC(=O)[C@@H]5CCCN5C4=O)C(=O)N[C@@H](CCSC)C(=O)N[C@@H](CCCCNC(=N)N)C(=O)N[C@@H](CC(=O)O)C(=O)N[C@@H](Cc4c[nH]c5ccccc45)C(=O)N[C@@H](CO)C(=O)N[C@@H]([C@@H](C)O)C(=O)N4CCC[C@H]4C(=O)N4C[C@H](O)C[C@H]4C(=O)N[C@@H](Cc4c[nH]c5ccccc45)C(=O)N[C@H](C(N)=O)CSCCC6=O)nn3)C(N)=O)NC1=O)C(=O)CCSC[C@H](NC(C)=O)C(=O)N[C@@H](CC(C)(C)C)C(=O)N1CCC[C@H]1C(=O)N[C@@H](CCC(=O)O)C(=O)N[C@H](C)C(=O)N1CCC[C@H]1C(=O)N[C@@H](Cc1ccc(O)cc1)C(=O)N2` [BCY10000], in data set [3] (read-out: Clp), the clearance amounted to 0.966 L/h/kg. In addition, in data set [3] (read-out: T½ (converted)), the half-life is 21.4 min. In addition, the Vd in data set [3] (read-out: Vdss) came to 0.395 L/kg. In addition, the “Fold Induction over Background” value on CD137 [2] turned out to be 61 fold. Further, in data set [4] (IFN-γ secretion), the EC50 was found to be 0.21 nM. For the same compound, the “max IFN-y” value in data set [4] was found to be 19642 pg/mL.
